Key:
Test in all cases: relative viability (nuclei count vs DMSO), 5 days (fraction); higher = more cells survive
[1] = compound: Cn1nnc2c(C(N)=O)ncn2c1=O [Temozolomide] + CS(=O)(=O)N1CCN(Cc2cc3nc(-c4cccc5[nH]ncc45)nc(N4CCOCC4)c3s2)CC1 [Pictilisib] (partner 1 µM)
How it was run: (§1)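 Relative viability is defined as nuclei in treated wells over nuclei in vehicle wells. Duplicate plates were run and medians reported. Lung cancer cell lines in 1536-well plates were dosed by pin tool one day after seeding, with one drug or with a fixed anchor-drug dose plus five library-drug doses (not always all listed) in √10 steps, and nuclei were counted after 5 days.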

AZD5582 + Trametinib = compound: C[C@@H](C(=O)N[C@@H](C1CCCCC1)C(=O)N2CCC[C@H]2C(=O)N[C@@H]3[C@@H](CC4=CC=CC=C34)OCC#CC#CCO[C@@H]5CC6=CC=CC=C6[C@@H]5NC(=O)[C@@H]7CCCN7C(=O)[C@H](C8CCCCC8)NC(=O)[C@H](C)NC)NC [AZD5582] + CC(=O)Nc1cccc(-n2c(=O)n(C3CC3)c(=O)c3c(Nc4ccc(I)cc4F)n(C)c(=O)c(C)c32)c1 [Trametinib] (partner 0.02 µM)
How it was run: as §1

Temozolomide + Olaparib = compound: Cn1nnc2c(C(N)=O)ncn2c1=O [Temozolomide] + O=C(c1cc(Cc2n[nH]c(=O)c3ccccc23)ccc1F)N1CCN(C(=O)C2CC2)CC1 [Olaparib] (partner 8 µM)
How it was run: as §1

AZD5582 + Luminespib = compound: C[C@@H](C(=O)N[C@@H](C1CCCCC1)C(=O)N2CCC[C@H]2C(=O)N[C@@H]3[C@@H](CC4=CC=CC=C34)OCC#CC#CCO[C@@H]5CC6=CC=CC=C6[C@@H]5NC(=O)[C@@H]7CCCN7C(=O)[C@H](C8CCCCC8)NC(=O)[C@H](C)NC)NC [AZD5582] + CCNC(=O)c1noc(-c2cc(C(C)C)c(O)cc2O)c1-c1ccc(CN2CCOCC2)cc1 [Luminespib] (partner 0.01 µM)
How it was run: as §1

| Cell Line | relative viability ([1]; first compound 0.2 µM) | relative viability ([1]; first compound 0.6325 µM) | relative viability ([1]; first compound 2 µM) | relative viability ([1]; first compound 6.325 µM) | relative viability ([1]; first compound 20 µM) | relative viability (AZD5582 + Trametinib; first compound 0.001581 µM) | relative viability (AZD5582 + Trametinib; first compound 0.005 µM) | relative viability (AZD5582 + Trametinib; first compound 0.01581 µM) | relative viability (AZD5582 + Trametinib; first compound 0.05 µM) | relative viability (Temozolomide + Olaparib; first compound 0.2 µM) | relative viability (Temozolomide + Olaparib; first compound 0.6325 µM) | relative viability (Temozolomide + Olaparib; first compound 2 µM) | relative viability (Temozolomide + Olaparib; first compound 6.325 µM) | relative viability (Temozolomide + Olaparib; first compound 20 µM) | relative viability (AZD5582 + Luminespib; first compound 0.001581 µM) | relative viability (AZD5582 + Luminespib; first compound 0.005 µM) | relative viability (AZD5582 + Luminespib; first compound 0.01581 µM) | relative viability (AZD5582 + Luminespib; first compound 0.05 µM) |
| --- | --- | --- | --- | --- | --- | --- | --- | --- | --- | --- | --- | --- | --- | --- | --- | --- | --- | --- |
| HCC-366 | 0.164 | 0.152 | 0.198 | 0.212 | 0.219 | 0.304 | 0.339 | 0.413 | 0.458 | 0.413 | 0.344 | 0.318 | 0.311 | 0.17 |  |  |  |  |
| HCC-827 | 0.82 | 0.958 | 1.06 | 1.05 | 0.313 | 0.538 | 0.611 | 0.515 | 0.589 | 0.749 | 0.645 | 0.665 | 0.432 | 0.107 | 0.61 | 0.755 | 0.664 | 0.743 |
| HOP-62 | 0.918 | 0.961 | 0.816 | 0.385 | 0.545 | 0.407 | 0.456 | 0.418 | 0.446 | 0.407 | 0.31 | 0.429 | 0.277 | 0.129 | 0.837 | 0.85 | 0.987 | 1.07 |
| IA-LM | 0.279 | 0.376 | 0.385 | 0.266 | 0.328 |  |  |  |  | 0.908 | 0.744 | 0.86 | 0.759 | 0.694 |  |  |  |  |
| LC-2-ad | 0.554 | 0.546 | 0.511 | 0.593 | 0.481 | 0.92 | 1.04 | 0.942 | 1.04 | 0.671 | 0.72 | 0.696 | 0.591 | 0.468 | 1.1 | 1.03 | 0.942 | 0.901 |
| LCLC-97TM1 | 0.197 | 0.224 | 0.163 | 0.178 | 0.17 | 0.203 | 0.25 | 0.184 | 0.189 | 0.512 | 0.447 | 0.436 | 0.238 | 0.226 | 0.766 | 0.794 | 0.785 | 0.857 |
| LCLC-103H | 0.614 | 0.523 | 0.816 | 0.509 | 0.62 | 0.702 | 0.813 | 0.643 | 0.828 | 0.82 | 0.79 | 0.85 | 0.731 | 0.617 | 0.877 | 0.943 | 0.896 | 0.886 |
| LK-2 | 0.48 | 0.568 | 0.575 | 0.353 | 0.305 | 0.466 | 0.81 | 0.731 | 1.04 | 0.736 | 0.702 | 0.593 | 0.355 | 0.257 | 0.178 | 0.202 | 0.191 | 0.171 |
| LOU-NH91 | 0.512 | 0.547 | 0.551 | 0.523 | 0.497 | 0.772 | 0.767 | 0.781 | 0.808 | 0.8 | 0.936 | 0.913 | 0.863 | 0.547 | 0.391 | 0.321 | 0.33 | 0.342 |
| LU99A | 0.325 | 0.351 | 0.324 | 0.343 | 0.335 | 0.575 | 0.68 | 0.534 | 0.617 | 0.285 | 0.258 | 0.295 | 0.155 | 0.119 | 0.215 | 0.227 | 0.271 | 0.266 |
| LXF-289 | 0.814 | 0.788 | 0.823 | 0.737 | 0.655 | 0.641 | 0.647 | 0.654 | 0.726 | 1.11 | 1.13 | 1.03 | 0.951 | 0.774 | 0.76 | 0.561 | 0.627 | 0.749 |
| NCI-H23 | 0.563 | 0.508 | 0.517 | 0.401 | 0.454 | 0.31 | 0.37 | 0.359 | 0.319 | 0.345 | 0.32 | 0.382 | 0.266 | 0.22 | 0.212 | 0.207 |  | 0.276 |
| NCI-H322M |  | 0.555 | 0.545 | 0.483 | 0.363 | 0.561 | 0.62 | 0.496 | 0.68 | 0.671 | 0.734 | 0.727 | 0.692 | 0.555 | 0.979 | 1.11 |  | 1.44 |
| NCI-H358 | 0.342 | 0.392 | 0.348 | 0.305 | 0.283 | 0.156 | 0.157 | 0.142 | 0.147 | 0.706 | 0.732 | 0.631 | 0.545 | 0.351 | 0.225 | 0.279 | 0.357 | 0.417 |
| NCI-H522 |  |  |  |  |  | 0.628 | 0.777 | 0.724 | 0.747 | 0.64 | 0.543 | 0.762 | 0.574 | 0.469 | 0.953 | 1.03 | 1.2 | 1.29 |
| NCI-H1299 | 0.823 | 0.8 | 0.744 | 0.784 | 0.847 |  |  |  |  | 1 | 0.99 | 0.957 | 0.923 | 0.967 |  |  |  |  |
| NCI-H1563 | 0.654 | 0.619 | 0.642 | 0.609 | 0.664 |  |  |  |  |  |  |  |  |  | 0.509 | 0.551 | 0.52 | 0.52 |
| NCI-H1623 |  |  |  |  |  |  |  |  |  |  |  |  |  |  | 0.405 | 0.551 | 0.572 | 0.543 |
| NCI-H1648 |  |  |  |  |  | 0.38 | 0.511 |  | 0.412 |  | 1.09 | 0.654 | 0.826 | 0.468 |  |  |  |  |
| NCI-H2342 |  |  |  |  |  | 0.792 | 0.922 | 0.693 | 0.932 | 0.344 | 0.411 | 0.454 | 0.386 | 0.36 | 0.784 | 0.887 | 0.737 | 0.755 |
| SW 900 |  |  |  |  |  | 0.634 | 0.865 | 0.758 | 0.615 | 1.02 | 1.05 | 0.871 | 0.946 | 0.776 | 0.168 | 0.169 | 0.208 | 0.188 |

— the supplement of paper PMC10307832
